# What was measured:
# green foxtail [1] = test: Foliar spread test for upland field; assay type: in vivo, Setaria viridis; design: key: 0 = normal development, 5 = all killed (6 ranks vs. untreated); settings: foliar spray, 500 ppm, 3 weeks, glass house 25° C.
# Procedure: (§1) The herbicidal effects are evaluated according to the following 6 ranks as compared with non-treated district. (0: normal development, 1: Less damaged, 2: Slightly damaged, 3: Moderately damaged, 4: Severely damaged, 5: All killed). Incidentally, “-” in the column means not investigated.
# (§2) Wagner pots, each having an area of 1/5000 are, were packed with volcanic ash soil and then each seed of corn, soybean, cotton, wheat, solgum, sugar beat, Large crabgrass, barnyardgrjass, green foxtail, blackgrass, annual bluegrass, common lambsquarters, livid amaranth, velvetleaf, morning glory, Xanthium pensylvanicum and Cassia obtusifolia was planted, covered with soil and grown in a glass house at an average temperature of 25° C. for about 2 weeks.
# (§3) Each wettable powder of the desired compounds (I) shown in Tables 1 to 21, 24, 25, 28 and 29 prepared in accordance with Example 2 was diluted to 500 ppm with water containing a surfactant (0.5%) and then uniformly sprayed on the above respective plants.
# (§4) After these plants were controlled in a glass house at an average temperature of 25° C. for 3 weeks, the herbicidal effects thereof were investigated.
# (§5) The herbicidal effects were evaluated according to the evaluation method described in the above (1).
# corn [2] = test: Soil treatment test for upland field; assay type: in vivo; design: key: 0 = normal development, 5 = all killed; settings: 500 g/ha, 3 weeks, glass house 25° C.
# Procedure: as §1
# (§6) Wagner pots, each having an area of 1/5000 are, were packed with Ube soil (alluvial soil), and then each seed of corn, soybean, cotton, wheat, solgum, sugar beat, Large crabgrass, barnyard grass, green foxtail, blackgrass, annual bluegrass, common lambsquarters, livid amaranth, velvetleaf, morning glory, common Cocklebur (Xanthium strumarium) and sicklepod (Cassia obtusifolia) were planted and covered with soil.
# (§7) Each wettable powder of the desired compounds (I) shown in Tables 1 to 21, 24, 25, 28 and 29 prepared in accordance with Example 2 was diluted with water containing a surfactant (0.05%) and uniformly sprayed on the surface of each soil so that an effective concentration of the compound (I) in each herbicide became 500 g/ha.
# (§8) These plants were controlled in a glass house at an average temperature of 25° C. for 3 weeks, and then herbicidal effects thereof were investigated.
# as §5
# soybean [3] = test: Soil treatment test for upland field; assay type: in vivo; design: key: 0 = normal development, 5 = all killed; settings: 500 g/ha, 3 weeks, glass house 25° C.
# Procedure: as §1, §6, §7, §8, §5
# wheat [4] = test: Soil treatment test for upland field; assay type: in vivo; design: key: 0 = normal development, 5 = all killed; settings: 500 g/ha, 3 weeks, glass house 25° C.
# Procedure: as §1, §6, §7, §8, §5
# corn [5] = test: Foliar spread test for upland field; assay type: in vivo; design: key: 0 = normal development, 5 = all killed (6 ranks vs. untreated); settings: foliar spray, 500 ppm, 3 weeks, glass house 25° C.
# Procedure: as §1, §2, §3, §4, §5
# wheat [6] = test: Foliar spread test for upland field; assay type: in vivo; design: key: 0 = normal development, 5 = all killed (6 ranks vs. untreated); settings: foliar spray, 500 ppm, 3 weeks, glass house 25° C.
# Procedure: as §1, §2, §3, §4, §5
# annual bluegrass [7] = test: Soil treatment test for upland field; assay type: in vivo, Poa annua; design: key: 0 = normal development, 5 = all killed; settings: 500 g/ha, 3 weeks, glass house 25° C.
# Procedure: as §1, §6, §7, §8, §5
# green foxtail [8] = test: Soil treatment test for upland field; assay type: in vivo, Setaria viridis; design: key: 0 = normal development, 5 = all killed; settings: 500 g/ha, 3 weeks, glass house 25° C.
# Procedure: as §1, §6, §7, §8, §5
# Large crabgrass [9] = test: Soil treatment test for upland field; assay type: in vivo, Digitaria adscendens; design: key: 0 = normal development, 5 = all killed; settings: 500 g/ha, 3 weeks, glass house 25° C.
# Procedure: as §1, §6, §7, §8, §5
# livid amaranth [10] = test: Soil treatment test for upland field; assay type: in vivo, Amaranthus lividus; design: key: 0 = normal development, 5 = all killed; settings: 500 g/ha, 3 weeks, glass house 25° C.
# Procedure: as §1, §6, §7, §8, §5
# livid amaranth [11] = test: Foliar spread test for upland field; assay type: in vivo, Amaranthus lividus; design: key: 0 = normal development, 5 = all killed (6 ranks vs. untreated); settings: foliar spray, 500 ppm, 3 weeks, glass house 25° C.
# Procedure: as §1, §2, §3, §4, §5
# common lambsquarters [12] = test: Foliar spread test for upland field; assay type: in vivo, Chenopodium album; design: key: 0 = normal development, 5 = all killed (6 ranks vs. untreated); settings: foliar spray, 500 ppm, 3 weeks, glass house 25° C.
# Procedure: as §1, §2, §3, §4, §5
# common lambsquarters [13] = test: Soil treatment test for upland field; assay type: in vivo, Chenopodium album; design: key: 0 = normal development, 5 = all killed; settings: 500 g/ha, 3 weeks, glass house 25° C.
# Procedure: as §1, §6, §7, §8, §5
# morning glory [14] = test: Foliar spread test for upland field; assay type: in vivo, Ipomoea spps.; design: key: 0 = normal development, 5 = all killed (6 ranks vs. untreated); settings: foliar spray, 500 ppm, 3 weeks, glass house 25° C.
# Procedure: as §1, §2, §3, §4, §5
# sugar beat [15] = test: Soil treatment test for upland field; assay type: in vivo; design: key: 0 = normal development, 5 = all killed; settings: 500 g/ha, 3 weeks, glass house 25° C.
# Procedure: as §1, §6, §7, §8, §5
# solgum [16] = test: Soil treatment test for upland field; assay type: in vivo; design: key: 0 = normal development, 5 = all killed; settings: 500 g/ha, 3 weeks, glass house 25° C.
# Procedure: as §1, §6, §7, §8, §5
# barnyardgrjass = test: Foliar spread test for upland field; assay type: in vivo, Eschinochloa crusgalli; design: key: 0 = normal development, 5 = all killed (6 ranks vs. untreated); settings: foliar spray, 500 ppm, 3 weeks, glass house 25° C.
# Procedure: as §1, §2, §3, §4, §5
# sugar beat [17] = test: Foliar spread test for upland field; assay type: in vivo; design: key: 0 = normal development, 5 = all killed (6 ranks vs. untreated); settings: foliar spray, 500 ppm, 3 weeks, glass house 25° C.
# Procedure: as §1, §2, §3, §4, §5
# cotton = test: Foliar spread test for upland field; assay type: in vivo; design: key: 0 = normal development, 5 = all killed (6 ranks vs. untreated); settings: foliar spray, 500 ppm, 3 weeks, glass house 25° C.
# Procedure: as §1, §2, §3, §4, §5
# soybean [18] = test: Foliar spread test for upland field; assay type: in vivo; design: key: 0 = normal development, 5 = all killed (6 ranks vs. untreated); settings: foliar spray, 500 ppm, 3 weeks, glass house 25° C.
# Procedure: as §1, §2, §3, §4, §5
# solgum [19] = test: Foliar spread test for upland field; assay type: in vivo; design: key: 0 = normal development, 5 = all killed (6 ranks vs. untreated); settings: foliar spray, 500 ppm, 3 weeks, glass house 25° C.
# Procedure: as §1, §2, §3, §4, §5
# morning glory [20] = test: Soil treatment test for upland field; assay type: in vivo, Ipomoea spps.; design: key: 0 = normal development, 5 = all killed; settings: 500 g/ha, 3 weeks, glass house 25° C.
# Procedure: as §1, §6, §7, §8, §5
# blackgrass [21] = test: Foliar spread test for upland field; assay type: in vivo, Alopecurus aegualis; design: key: 0 = normal development, 5 = all killed (6 ranks vs. untreated); settings: foliar spray, 500 ppm, 3 weeks, glass house 25° C.
# Procedure: as §1, §2, §3, §4, §5
# Large crabgrass [22] = test: Foliar spread test for upland field; assay type: in vivo, Digitaria adscendens; design: key: 0 = normal development, 5 = all killed (6 ranks vs. untreated); settings: foliar spray, 500 ppm, 3 weeks, glass house 25° C.
# Procedure: as §1, §2, §3, §4, §5
# blackgrass [23] = test: Soil treatment test for upland field; assay type: in vivo, Alopecurus aegualis; design: key: 0 = normal development, 5 = all killed; settings: 500 g/ha, 3 weeks, glass house 25° C.
# Procedure: as §1, §6, §7, §8, §5
# annual bluegrass [24] = test: Foliar spread test for upland field; assay type: in vivo, Poa annua; design: key: 0 = normal development, 5 = all killed (6 ranks vs. untreated); settings: foliar spray, 500 ppm, 3 weeks, glass house 25° C.
# Procedure: as §1, §2, §3, §4, §5
# velvetleaf [25] = test: Foliar spread test for upland field; assay type: in vivo, Abutilon theophrasti; design: key: 0 = normal development, 5 = all killed (6 ranks vs. untreated); settings: foliar spray, 500 ppm, 3 weeks, glass house 25° C.
# Procedure: as §1, §2, §3, §4, §5
# velvetleaf [26] = test: Soil treatment test for upland field; assay type: in vivo, Abutilon theophrasti; design: key: 0 = normal development, 5 = all killed; settings: 500 g/ha, 3 weeks, glass house 25° C.
# Procedure: as §1, §6, §7, §8, §5
# barnyard grass = test: Soil treatment test for upland field; assay type: in vivo, Eschinochloa crusgalli; design: key: 0 = normal development, 5 = all killed; settings: 500 g/ha, 3 weeks, glass house 25° C.
# Procedure: as §1, §6, §7, §8, §5
SMILES,Effects Green foxtail (green foxtail [1]),Effects Corn (corn [2]),Effects Soybean (soybean [3]),Effects Wheat (wheat [4]),Effects Corn (corn [5]),Effects Wheat (wheat [6]),Effects Annual bluegrass (annual bluegrass [7]),Effects Green foxtail (green foxtail [8]),Effects Large crabgrass (Large crabgrass [9]),Effects Livid amaranth (livid amaranth [10]),Effects Livid amaranth (livid amaranth [11]),Effects Common lambsquarters (common lambsquarters [12]),Effects Common lambsquarters (common lambsquarters [13]),Effects Morning glory (morning glory [14]),Effects Sugar beat (sugar beat [15]),Effects Solgum (solgum [16]),Effects Barnyardgrass (barnyardgrjass),Effects Sugar beat (sugar beat [17]),Effects Large crabgrass (Large crabgrass [22]),Effects Barnyardgrass (barnyard grass),other results
CCC(Oc1cc(C(F)(F)F)nn1C)c1nc2cc(Cl)ccc2o1 (centres unmarked) [Compound 1-e-2],2,0,0,0,1,1,3,3,3,5,4,3,2,–,–,–,–,–,–,–,–
CCCC(Oc1cc(C)nc(SC)n1)c1nc2cc(C#N)c(F)cc2o1 (centres unmarked) [Compound 1-e-65],–,0,0,0,–,–,–,4,4,5,–,–,2,–,–,–,–,–,–,–,–
"CC/C(=C\c1cccc(C(F)(F)F)c1)c1nc2cc(Cl)ccc2o1 [I-c-55, (E)-2-(5-chlorobenzoxazol-2-yl)-1-(3-trifluoromethylphenyl)butene]",5,1,4,0,3,3,5,5,5,5,4,5,5,5,5,1,4,5,4,5,Effects Sotton (cotton): 4; Effects Soybean (soybean [18]): 5; Effects Solgum (solgum [19]): 3; Effects Morning glory (morning glory [20]): 5; Effects Blackgrass (blackgrass [21]): 4; Effects Blackgrass (blackgrass [23]): 5; Effects Annual bluegrass (annual bluegrass [24]): 4; Effects Velvetleaf (velvetleaf [25]): 4; Effects Velvetleaf (velvetleaf [26]): 5
CCCC(=Cc1cccc(C(F)(F)F)c1)c1nc2cc(F)c(F)cc2o1 [I-c-113],5,2,–,2,2,2,5,5,5,5,5,5,5,5,5,2,3,5,4,5,Effects Sotton (cotton): 5; Effects Soybean (soybean [18]): 5; Effects Solgum (solgum [19]): 3; Effects Morning glory (morning glory [20]): 4; Effects Blackgrass (blackgrass [21]): 4; Effects Blackgrass (blackgrass [23]): 5; Effects Annual bluegrass (annual bluegrass [24]): 4; Effects Velvetleaf (velvetleaf [25]): 4; Effects Velvetleaf (velvetleaf [26]): 5
CC(=Cc1cccc(C(F)(F)F)c1)c1nc2cc(C#N)c(Cl)cc2o1 [I-c-141],5,0,–,0,2,1,5,5,5,5,5,5,5,5,5,0,1,5,3,4,Effects Sotton (cotton): 5; Effects Soybean (soybean [18]): 3; Effects Solgum (solgum [19]): 1; Effects Morning glory (morning glory [20]): 5; Effects Blackgrass (blackgrass [21]): 1; Effects Blackgrass (blackgrass [23]): 4; Effects Annual bluegrass (annual bluegrass [24]): 3; Effects Velvetleaf (velvetleaf [25]): 4; Effects Velvetleaf (velvetleaf [26]): 5
"CCC(Oc1cc(C(F)(F)F)on1)c1nc2cc(C#N)c(F)cc2o1 (centres unmarked) [I-e-40, 1-(5-cyano-6-fluorobenzoxazol-2-yl)-1-(5-trifluoromethylisoxazol-3-yloxy)propane]",4,1,2,0,–,2,5,5,5,5,5,5,5,–,–,–,–,–,4,5,–

# Reference: patent publication US7402548B2, “Benzoxazole compounds, process for producing the same and herbicides” (Kyoyu Agri Co., Ltd., priority 2000, dated 2008)
